PubChem BioAssay (NCI)
Where “and” joins values, the source holds several entries; their conditions need not be identical. Identical values can stand only once.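 Dose response: 5 concentrations. Exposure: 48 h. Format: 96-well plates. Endpoint: linear interpolation; highest concentration if not reached. GI50 marks 50% less growth. TGI: total growth inhibition.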

Tests used:
Experiment in all cases: NCI anticancer screen, dose series, 48 h
DU-145 prostate = test system: DU-145 prostate
HCT-15 colon = test system: HCT-15 colon
KM12 colon = test system: KM12 colon
MDA-MB-231 breast = test system: MDA-MB-231 breast
NCI-H226 lung = test system: NCI-H226 lung
NCI-H522 lung = test system: NCI-H522 lung
SF-295 CNS = test system: SF-295 CNS
SK-MEL-5 melanoma = test system: SK-MEL-5 melanoma
SNB-19 CNS = test system: SNB-19 CNS
UACC-62 melanoma = test system: UACC-62 melanoma

| Structure (SMILES) | GI50 (DU-145 prostate) | TGI (DU-145 prostate) | GI50 (HCT-15 colon) | TGI (HCT-15 colon) | GI50 (KM12 colon) | TGI (KM12 colon) | GI50 (MDA-MB-231 breast) | TGI (MDA-MB-231 breast) | GI50 (NCI-H226 lung) | TGI (NCI-H226 lung) | GI50 (NCI-H522 lung) | TGI (NCI-H522 lung) | GI50 (SF-295 CNS) | TGI (SF-295 CNS) | GI50 (SK-MEL-5 melanoma) | TGI (SK-MEL-5 melanoma) | GI50 (SNB-19 CNS) | TGI (SNB-19 CNS) | GI50 (UACC-62 melanoma) | TGI (UACC-62 melanoma) |
| --- | --- | --- | --- | --- | --- | --- | --- | --- | --- | --- | --- | --- | --- | --- | --- | --- | --- | --- | --- | --- |
| O=C1OCC2=C1C(c1cccc(C(F)(F)F)c1)c1cc3c(cc1N2CCO)CCC3 (configuration not stated) | 0.195 µM | 5.66 µM | 0.15 µM | 6.02 µM | 0.157 µM | 6.37 µM | 0.223 µM | 6.76 µM | 1 µM | 9.43 µM | 137 nM | 1.35 µM | 0.138 µM | 6.21 µM | 156 nM | 2.18 µM | 0.215 µM | 8.8 µM | 0.174 µM | 9.15 µM |
| CCOC(=O)/C(=C\c1ccc(F)cc1)C(C)=O | – | 56.8 µM | – | 44.2 µM | – | 69 µM | – | 52 µM | – | 75.2 µM | – | 29.5 µM | – | 79.3 µM | – | 47.1 µM | – | > 100 µM | – | 38.1 µM |
| C[C@@H]1COC(Nc2ccc3ncnc(Nc4ccc(OCc5nccs5)c(Cl)c4)c3c2)=N1 | 3.19 µM and 3.26 µM | > 10 µM and 19.3 µM | 4.07 µM and 5.32 µM | > 10 µM and 25.6 µM | 4.38 µM and 4.14 µM | > 10 µM and 33.8 µM | 6.04 µM and 8.22 µM | > 10 µM and 27.2 µM | 4.02 µM and 4.04 µM | > 10 µM and 18.2 µM | 237 nM and 490 nM | > 10 µM and 4.65 µM | 4.9 µM and 4.54 µM | > 10 µM and 18.6 µM | 2210 nM and 2980 nM | 6.42 µM and 10.6 µM | > 10 µM and 12.4 µM | > 10 µM and 32.4 µM | 6.14 µM and 3.39 µM | > 10 µM and 14.9 µM |
| Cc1cc2nc3c4cccc(O)c4n(CCN(C)C)c3nc2cc1C | 2.96 µM | 8.79 µM | 1.29 µM | 3.79 µM | 1.65 µM | 4.17 µM | 2.04 µM | 5.63 µM | 3.72 µM | 52.9 µM | 2150 nM | 6.49 µM | 3.58 µM | 14 µM | 1670 nM | 3.08 µM | 2.62 µM | 26.3 µM | 1.73 µM | 3.73 µM |
| CNCCOC(=O)/C=C1/CCC2C(C(O)CC3C(C)(C(=O)OC)CCCC23C)C1C (configuration not stated) | 0.016 µM | 0.0305 µM | 0.0258 µM | 0.0654 µM | 0.0339 µM | 0.111 µM | 0.0604 µM | 0.229 µM | 0.0191 µM | 0.0408 µM | < 10 nM | 0.0203 µM | 0.0209 µM | 0.0452 µM | 16.3 nM | 0.0321 µM | 0.0428 µM | 0.152 µM | 0.0235 µM | 0.0559 µM |
| O=C1C=CC(=O)c2c1ncc1c2nc2sccn21 | 12.8 µM | 40 µM | 17.9 µM | 39.5 µM | > 100 µM | > 100 µM | 14.6 µM | 39 µM | 37.6 µM | > 100 µM | 16000 nM | 61.2 µM | 48.3 µM | > 100 µM | 16900 nM | 37.3 µM | 63.8 µM | > 100 µM | 21.8 µM | 45.2 µM |
| COc1ccc(-c2nc3sc4c(c3c(=O)[nH]2)CCCC4)c2ccccc12 | – | 17.5 µM | – | > 100 µM | – | > 100 µM | – | > 100 µM | 1.41 µM | – | – | 0.0179 µM | 0.314 µM | 1.2 µM | – | 5.52 µM | 0.411 µM and 0.0467 µM | > 100 µM | – | 16.3 µM |
| CCN1CCC(CC(=O)Nc2n[nH]c3nc(-c4cccs4)c(Br)cc23)CC1 | 8.5 µM | > 25 µM | 6.89 µM | > 20.6 µM | 5.81 µM | 13.8 µM | 14.7 µM | > 25 µM | 12.1 µM | > 25 µM | 6740 nM | > 16.8 µM | 10.7 µM | > 25 µM | 6370 nM | > 14.6 µM | 17.4 µM | > 25 µM | 5.26 µM | 11 µM |
| CO/C(=N\N=C\c1cccc(C(F)(F)F)c1)c1ccncc1 | 33.6 µM | > 100 µM | 4.54 µM | 68.2 µM | – | > 100 µM | 10.8 µM | > 100 µM | – | 27.4 µM | 6410 nM | 30.3 µM | 7.59 µM | – | – | 32.4 µM | 14.2 µM | 54.6 µM | – | > 100 µM |
| Cc1ccc2nc(N/N=C/c3cccc(C)n3)cc(C)c2c1 | – | 36.3 µM | – | 52.7 µM | – | 27.7 µM | – | 36 µM | – | 48.6 µM | – | 39.8 µM | – | 31.6 µM | – | 36.4 µM | – | 44.8 µM | – | 29.8 µM |
| O=C1CC/C(=C\COc2ccc3ccc(=O)oc3c2)O1 | 1.89 µM | 14.1 µM | 3.84 µM | 17.1 µM | 10.1 µM | 45.2 µM | 13.8 µM | 29.4 µM | 22.4 µM | 83.1 µM | 1760 nM | 5.83 µM | 43.5 µM | > 100 µM | 14500 nM | 32.7 µM | 13.2 µM | 36.8 µM | 10.8 µM | 24.7 µM |
| Cc1ccc(F)cc1NC(=O)c1cc(Cl)ccc1Nc1ccccc1 | > 100 µM | > 100 µM | > 100 µM | > 100 µM | > 100 µM | > 100 µM | 6.96 µM | > 100 µM | > 100 µM | > 100 µM | > 100000 nM | > 100 µM | 56 µM | > 100 µM | > 100000 nM | > 100 µM | > 100 µM | > 100 µM | > 100 µM | > 100 µM |
| N=C(N)c1ccc(-c2ccc(-c3ccc(F)cc3)o2)o1 | 1.8 µM | 3.36 µM | 0.631 µM | 2.08 µM | 1.44 µM | 3.41 µM | 1.57 µM | 3.33 µM | 2.82 µM | 9.71 µM | 1360 nM | 2.9 µM | 1.51 µM | 3.05 µM | 1560 nM | 2.92 µM | 1.73 µM | 4.05 µM | 1.74 µM | 3.27 µM |
